Literature values as cited in patent US9827315B2, “Compositions of pharmaceutical actives containing diethylene glycol monoethyl ether or other alkyl derivatives” (THEMIS MEDICARE LIMITED, priority 2013, dated 2017).
≈ marks a conversion by molar mass, not a printed value. Like-named read-outs stand apart in the source and are kept apart here.

Conditions: cited from earlier work

Row | Compound | Solubility in water (descriptive) | also measured
1 | C#C[C@]1(O)CC[C@H]2[C@@H]3CCc4cc(O)ccc4[C@H]3CC[C@@]21C [Ethinyl estradiol, 19-nor-17α-pregna-1,3,5(10)-trien-20-yne-3,17-diol] | practically insoluble | 
2 | (3R,4S,5S,6R,7R,9R,11S,12R,13S,14S)-6-{[(2S,3R,4S,6R) -4-(dimethylamino)-3-hydroxy-6-methyloxan-2-yl]oxy}-14-ethyl-12,13-dihydroxy-4-{[(2R,4S,5S,6S)-5-hydroxy-4-methoxy-4,6-dimethyloxan-2-yl]oxy}-7-methoxy-3,5,7,9,11,13-hexamethyl-1-oxacyclotetradecane-2,10-dione [Azithromycin] | practically insoluble | 
3 | COCCOC(=O)C1=C(C)NC(C)=C(C(=O)OC(C)C)C1c1cccc([N+](=O)[O-])c1 (centres unmarked) [Nimodipine] | Soluble in methanol. Insoluble in water in beta cyclodextrin | 
4 | CCN(CC)CCOC(=O)C1(C2CCCCC2)CCCCC1 [Dicyclomine Hydrocloride, Dicyclomine] | soluble | 
5 | OC(Cn1cncn1)(Cn1cncn1)c1ccc(F)cc1F [Fluconazole, 2-(2,4-difluorophenyl)-1,3-bis(1H-1,2,4-triazol-1-yl)propan-2-ol] | very slightly soluble | 
6 | CC[C@H]1OC(=O)[C@H](C)[C@@H](O[C@H]2C[C@@](C)(OC)[C@@H](O)[C@H](C)O2)[C@H](C)[C@@H](O[C@@H]2O[C@H](C)C[C@H](N(C)C)[C@H]2O)[C@](C)(O)C[C@@H](C)/C(=N\OCOCCOC)[C@H](C)[C@@H](O)[C@]1(C)O [Roxithromycin, (3R,4S,5S,6R,7R,9R,11S,12R,13S,14R)-6-[(2S,3R,4S,6R)-4-d-3-hydroxy-6-methyloxan-2-yl]oxy-14-ethyl-7,12,13-trihydroxy-4-[(2R,4R,5S,6S)-5-hydroxy-4-methoxy-4,6-dimethyloxan-2-yl]oxy-10-(2-methoxyethoxymethoxyimino)-3,5,7,9,11,13-hexamethyl-1-oxacyclotetradecan-2-one] | almost insoluble | water solubility (dissolved in 30 ml water): 0.1 g
7 | COc1ccccc1OCC(O)COC(N)=O (centres unmarked) [Methocarbamol, 3-(2-methoxyphenoxy)-1,2-propanediol 1-carbamate] | sparingly soluble | 
8 | O=C(O)COC(=O)Cc1ccccc1Nc1c(Cl)cccc1Cl [Aceclofenac, 2-[2-[2-[(2,6-dichlorophenyl)amino]phenyl]acetyl]oxyacetic acid] | practically insoluble | 
9 | COC(=O)[C@@H]1CC2=CC(=O)CC[C@]2(C)[C@@]23O[C@@H]2C[C@@]2(C)[C@@H](CC[C@@]24CCC(=O)O4)[C@H]13 [Eplerenone, pregn-4-ene-7,21-dicarboxylic acid, 9,11-epoxy-17-hydroxy-3-oxo, γ-lactone, methyl ester (7α, 11α, 17α)] | very slightly soluble | octanol/water partition coefficient (at pH 7.0): approximately 7.1
10 | COC(=O)C1=C(C)NC(C)=C(C(=O)OC2CCN(Cc3ccccc3)C2)[C@H]1c1cccc([N+](=O)[O-])c1.Cl (stereo in doubt) [Barnidipine Hydrochloride, 3-(3R)-1-benzylpyrrolidin-3-yl 5-methyl 2,6-dimethyl-4-(3-nitrophenyl)-1,4-dihydropyridine-3,5-dicarboxylate] | insoluble | 
11 | C[C@]12Cc3c[nH]nc3C[C@@H]1CC[C@@H]1[C@@H]2CC[C@@]2(C)[C@H]1CC[C@]2(C)O [Stanozolol] | practically insoluble | 
12 | C=CC[C@]1(O)CC[C@H]2[C@@H]3CCC4=CCCC[C@@H]4[C@H]3CC[C@@]21C [Allyoestrenol, (17β)-17-(prop-2-en-1-yl)estr-4-en-17-ol] | practically insoluble | 
13 | O=C1[C@H](CC[C@H](O)c2ccc(F)cc2)[C@@H](c2ccc(O)cc2)N1c1ccc(F)cc1 [Ezetimibe] | Freely to very soluble in ethanol, methanol, and acetone and practically insoluble in water. | 
14 | CCC(C)n1ncn(-c2ccc(N3CCN(c4ccc(OC[C@H]5CO[C@](Cn6cncn6)(c6ccc(Cl)cc6Cl)O5)cc4)CC3)cc2)c1=O (mixture of isomers) [Itraconazole] | Soluble in organic solvents such as DMSO and dimethyl formamide. Insoluble in water. | 
15 | CCCCCCCCCC(=O)O[C@H]1CC[C@H]2[C@@H]3CCC4=CC(=O)CC[C@@H]4[C@H]3CC[C@]12C [Nandrolone Decoanate, Estr-4-en-3-one,17-[(1-oxodecyl)oxy]-,(17b)-] | practically insoluble | 
16 | CC(=O)O[C@]1(C(C)=O)CC[C@H]2[C@@H]3C[C@H](C)C4=CC(=O)CC[C@]4(C)[C@H]3CC[C@@]21C [MPA, 17α-hydroxy-6α-methylpregn-4-ene-3,20-dione acetate] | insoluble | 
17 | CN1CC(=O)N2[C@H](c3ccc4c(c3)OCO4)c3[nH]c4ccccc4c3C[C@@H]2C1=O [Tadalafil] | Insoluble in water and very slightly soluble in ethanol | 
18 | CC(=O)S[C@@H]1CC2=CC(=O)CC[C@]2(C)[C@H]2CC[C@@]3(C)[C@@H](CC[C@@]34CCC(=O)O4)[C@H]12 [Spironolactone, 17-hydroxy-7α-mercapto-3-oxo-17α-pregn-4-ene-21-carboxylic acid, γ-lactone acetate] |  | solubility in water (at 25° C.): about 22 mg/L

Row | Compound | Solubility in water (descriptive) | also measured
19 | CN1C(C(=O)Nc2ccccn2)=C(O)c2sc(Cl)cc2S1(=O)=O [Lornoxicam, (3E)-6-chloro-3-[hydroxy(pyridin-2-ylamino)methylene]-2-methyl-2,3-dihydro-4H-thieno[2,3-e][1,2]thiazin-4-one 1,1-dioxide] | hardly soluble | 
20 | CC1=C(/C=C/C(C)=C/C=C/C(C)=C/C(=O)O)C(C)(C)CCC1 [Tretinoin] | Insoluble in water | 
21 | (3R,4S,5S,6R,7R,9R,11R,12R,13S,14R)-4-[(2,6-Dideoxy-3-C-methyl-3-O-methyl-a-L-ribo-hexopyranosyl)oxy]-14-ethyl-12,13-dihydroxy-7-methoxy-3,5,7,9,11,13-hexamethyl-6-[[3,4,6-trideoxy-3-(dimethylamino)-b-D-xylo-hexopyranosyl]oxy]oxacyclotetradecane-2,10-dione [Clarithromycin] | insoluble | 
22 | Cl.N[C@@H]1CCCCN(c2c(F)cc3c(=O)c(C(=O)O)cn(C4CC4)c3c2Cl)C1 [Besifloxacin] |  | solubility in DMSO: Sparingly soluble in methanol, Sparingly soluble in water (1 mg/mL), DMSO (<1 mg/mL); solubility in water: Sparingly soluble in methanol, Sparingly soluble in water (1 mg/mL), DMSO (<1 mg/mL)
23 | CC(=O)OCC(=O)[C@@]1(O)CC[C@H]2[C@@H]3CCC4=CC(=O)C=C[C@]4(C)[C@H]3[C@@H](O)C[C@@]21C [Prednisolone acetate, 11β,17,21-Trihydroxypregna-1,4-diene-3,20-dione 21-acetate] | practically insoluble | 
24 | C[C@H](CS)C(=O)N1CCC[C@H]1C(=O)O [Captopril, (2S)-1-[(2S)-2-methyl-3-sulfanylpropanoyl]pyrrolidine-2-carboxylic acid] | easily soluble | 
25 | Cc1c(OCC(F)(F)F)ccnc1C[S@@+]([O-])c1nc2ccccc2[nH]1 [Dexlansoprazole, (R)-(+)2-([3-methyl-4-(2,2,2-trifluoroethoxy)pyridin-2-yl]methylsulfinyl)-1H-benzo[d]imidazole] | very slightly soluble | 
26 | NC(Cc1ccc(N(CCCl)CCCl)cc1)C(=O)O (centres unmarked) [Melphalan] |  | solubility (solvent not given) (at 22° C.): < 0.1 g/100 mL
27 | COc1cccc2c1C(=O)c1c(O)c3c(c(O)c1C2=O)C[C@@](O)(C(=O)CO)C[C@@H]3O[C@H]1C[C@H](N)[C@H](O)[C@H](C)O1 [Doxorubicin] |  | solubility in water (with slight warming): 10 mg/mL (≈ 18.4 mM)
28 | Brc1c(NC2=NCCN2)ccc2nccnc12 [Brimonidine tartarate] |  | solubility in water (at pH 6.5): 34 mg/mL (≈ 116 mM)
29 | CCCCCCCC/C=C\CCCCCCCC(=O)OCC [Ethyl oleate] |  | viscosity of vehicle (at 25° C.): 3.9 Cps
30 | Cc1ccc(-c2ncc(Cl)cc2-c2ccc(S(C)(=O)=O)cc2)cn1 [Etoricoxib, 5-chloro-6′-methyl-3-[4-(methylsulfonyl)phenyl]-2,3′-bipyridine] |  | solubility in water: about 3.3 mg/L
31 | C#C[C@]1(OC(=O)CCCCCC)CC[C@H]2[C@@H]3CCC4=CC(=O)CC[C@@H]4[C@H]3CC[C@@]21C [Norethisterone enantate, 17alpha-Ethynyl-19-nortestosterone 17-heptanoate] | practically insoluble | 
32 | CC1(C)O[C@@H]2C[C@H]3[C@@H]4CCC5=CC(=O)C=C[C@]5(C)[C@@]4(F)[C@@H](O)C[C@]3(C)[C@]2(C(=O)CO)O1 [Triamcinolone Acetonide, 9-Fluoro-11β,16α,17,21-tetrahydroxypregna-1,4-diene-3,20-dione cyclic 16,17acetal with acetone] | practically insoluble | 
33 | C[C@H]1[C@H](OC(=O)CCC(=O)[O-])O[C@@H]2O[C@@]3(C)CC[C@H]4[C@H](C)CC[C@@H]1[C@@]24OO3.[Na+] [sodium Artesunate] | soluble | 
34 | CCOC(=O)C1=C(COCCN)NC(C)=C(C(=O)OC)C1c1ccccc1Cl (racemic) [Amlodipine besylate, 3-Ethyl-5-methyl(±)-2-[(2-aminoethoxy)methyl]4-(2-chlorophenyl)-1,4-dihydro-6-methyl-3,5-pyridinedicarboxylate, mono benzene sulphonate] | slightly soluble | 
35 | C=C(c1ccc(C(=O)O)cc1)c1cc2c(cc1C)C(C)(C)CCC2(C)C [Bexarotene] | Insoluble in water and slightly soluble in vegetable oils and ethanol, USP | 
